Laboratory results as given in paper PMC3260273, “Allosteric Antagonism of Insect Odorant Receptor Ion Channels” (PLoS ONE, 2012).
pIC50: −log10 of the molar value. Each block holds one compound with its values, some of them ahead of it.

Tests used:
TRPV1 = TRPV1 (Rattus norvegicus, UniProt O35433); test: whole-cell patch clamp in HEK cells, […] capsaicin; assay type: cell-based
AgOrco [1] = molecular target: T1, AgOrco (Anopheles gambiae, UniProt Q7QCC7); test: calcium mobilization in AgOrco-only HEK cells against VUAA1; whole-cell patch clamp; assay type: cell-based
T1 construct: gene Orco
T1 sequence (Q7QCC7 1-478): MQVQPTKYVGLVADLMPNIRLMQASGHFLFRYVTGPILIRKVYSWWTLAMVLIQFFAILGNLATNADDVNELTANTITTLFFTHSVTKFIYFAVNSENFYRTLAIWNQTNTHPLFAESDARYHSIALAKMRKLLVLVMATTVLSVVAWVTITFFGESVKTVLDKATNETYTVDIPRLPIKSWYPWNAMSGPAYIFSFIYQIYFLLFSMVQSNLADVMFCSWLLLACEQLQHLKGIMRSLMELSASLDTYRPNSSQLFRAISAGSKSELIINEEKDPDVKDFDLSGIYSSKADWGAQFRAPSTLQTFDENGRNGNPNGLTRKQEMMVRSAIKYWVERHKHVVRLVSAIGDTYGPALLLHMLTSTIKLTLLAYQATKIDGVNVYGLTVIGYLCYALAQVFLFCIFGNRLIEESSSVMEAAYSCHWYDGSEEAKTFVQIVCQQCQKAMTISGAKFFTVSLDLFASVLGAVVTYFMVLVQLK

HsOrco = molecular target: T2, HsOrco (Harpegnathos saltator, UniProt E2BJ30); test: whole-cell patch clamp, HEK cells, […] antagonist against […] VUAA1; assay type: cell-based
T2 construct: gene Orco
T2 sequence (E2BJ30 1-479): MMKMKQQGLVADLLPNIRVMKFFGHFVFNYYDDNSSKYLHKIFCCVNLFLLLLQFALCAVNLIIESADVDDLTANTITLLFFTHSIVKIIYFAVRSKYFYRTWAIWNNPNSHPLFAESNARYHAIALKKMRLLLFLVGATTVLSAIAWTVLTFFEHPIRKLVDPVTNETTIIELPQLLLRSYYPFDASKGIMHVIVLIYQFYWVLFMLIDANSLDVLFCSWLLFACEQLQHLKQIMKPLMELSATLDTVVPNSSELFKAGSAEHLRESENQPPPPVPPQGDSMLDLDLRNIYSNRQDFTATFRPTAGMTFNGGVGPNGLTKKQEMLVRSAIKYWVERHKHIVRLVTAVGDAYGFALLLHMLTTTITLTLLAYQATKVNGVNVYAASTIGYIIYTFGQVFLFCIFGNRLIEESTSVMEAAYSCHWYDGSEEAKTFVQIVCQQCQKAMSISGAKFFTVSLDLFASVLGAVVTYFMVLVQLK

AgOrco [2] = molecular target: T1, AgOrco; test: calcium mobilization in AgOrco-only HEK cells against VUAA1; assay type: cell-based
AgOr65 = tested on: T3, AgOr65; test: calcium mobilization concentration response in AgOrco+AgOr65 HEK cells; patch clamp; assay type: cell-based, Anopheles gambiae
T3 construct: gene Or65; with AgOrco

Chain of TRPV1 (O35433 whole entry): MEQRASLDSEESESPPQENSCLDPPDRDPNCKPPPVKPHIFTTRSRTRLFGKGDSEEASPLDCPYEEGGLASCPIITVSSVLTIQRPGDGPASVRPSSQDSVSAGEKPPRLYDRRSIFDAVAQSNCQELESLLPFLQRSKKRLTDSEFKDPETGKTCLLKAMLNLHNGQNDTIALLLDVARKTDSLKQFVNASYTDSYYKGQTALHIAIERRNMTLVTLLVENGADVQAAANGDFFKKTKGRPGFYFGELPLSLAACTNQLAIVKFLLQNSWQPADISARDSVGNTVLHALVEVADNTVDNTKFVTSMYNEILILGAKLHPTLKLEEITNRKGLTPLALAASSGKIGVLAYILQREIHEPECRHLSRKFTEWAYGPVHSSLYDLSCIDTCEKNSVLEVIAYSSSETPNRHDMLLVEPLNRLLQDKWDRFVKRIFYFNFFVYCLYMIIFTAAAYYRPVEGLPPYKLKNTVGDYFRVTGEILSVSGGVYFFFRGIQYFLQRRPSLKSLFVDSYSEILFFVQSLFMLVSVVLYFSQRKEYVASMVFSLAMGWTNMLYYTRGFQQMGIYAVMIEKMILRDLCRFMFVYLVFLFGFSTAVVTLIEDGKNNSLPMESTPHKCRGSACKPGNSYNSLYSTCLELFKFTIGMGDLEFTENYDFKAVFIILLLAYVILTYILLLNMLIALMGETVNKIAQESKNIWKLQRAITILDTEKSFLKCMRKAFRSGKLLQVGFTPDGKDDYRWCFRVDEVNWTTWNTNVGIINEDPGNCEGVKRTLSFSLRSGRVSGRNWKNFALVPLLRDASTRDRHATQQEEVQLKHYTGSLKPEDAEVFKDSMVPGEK

Compound: COc1cc(CNC(=O)CCCC/C=C/C(C)C)ccc1O [capsaicin]
whole-cell patch clamp in HEK cells, 10 μM capsaicin (TRPV1): VU0183254 did not affect the macroscopic currents induced by the natural TRPV1 ligand capsaicin

pIC50 (AgOrco [1]): 4.90
% (HsOrco): 63.9±2.2%
Compound: CCn1c(SCC(=O)N2c3ccccc3Sc3ccccc32)nnc1-c1ccco1 [VU0183254, 10-({[4-ethyl-5-(2-furyl)-4H-1,2,4-triazol-3-yl]thio}acetyl)-10H-phenothiazine]

pIC50 (AgOrco [2]): 2.80
Compound: CCn1c(SCC(=O)Nc2ccc(Br)cc2C)nnc1-c1cccnc1 [VU0450667, N-(4-bromo-2-methylphenyl)-2-((4-ethyl-5-(pyridin-3-yl)-4H-1,2,4-triazol-3-yl)thio)acetamide]

EC50 (AgOr65): −6.69+/−.03 log M
Compound: C=CCc1ccc(O)c(OC)c1 [eugenol]
